# Results as given in the supplement of paper PMC10307832.
# Legend:
# Test in all cases: relative viability (nuclei count vs DMSO), 5 days (fraction); higher = more cells survive
# 201T = system: 201T
# How it was run: (§1)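 Dosing by pin tool came one day after lung cancer cell lines were seeded in 1536-well plates, using either one drug or a fixed anchor-drug dose plus five library-drug doses (not always all listed) in √10 steps. After 5 days, nuclei were counted on 4× images. Relative viability is treated-well nuclei count divided by vehicle-well nuclei count, and values are medians of duplicate plates.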
# BEN = system: BEN
# How it was run: as §1
# CAL-12T = system: CAL-12T
# How it was run: as §1
# COR-L 105 = system: COR-L 105
# How it was run: as §1
# H3255 = system: H3255
# How it was run: as §1
# HARA = system: HARA
# How it was run: as §1
# HCC-15 = system: HCC-15
# How it was run: as §1
# HCC-827 = system: HCC-827
# How it was run: as §1
# LC-2-ad = system: LC-2-ad
# How it was run: as §1
# LCLC-103H = system: LCLC-103H
# How it was run: as §1
# LK-2 = system: LK-2
# How it was run: as §1
# LU99A = system: LU99A
# How it was run: as §1
# LXF-289 = system: LXF-289
# How it was run: as §1
# NCI-H1437 = system: NCI-H1437
# How it was run: as §1
# NCI-H1651 = system: NCI-H1651
# How it was run: as §1
# NCI-H1792 = system: NCI-H1792
# How it was run: as §1
# NCI-H2085 = system: NCI-H2085
# How it was run: as §1
# NCI-H2228 = system: NCI-H2228
# How it was run: as §1
# NCI-H23 = system: NCI-H23
# How it was run: as §1
# NCI-H2405 = system: NCI-H2405
# How it was run: as §1
# NCI-H322M = system: NCI-H322M
# How it was run: as §1
# RERF-LC-KJ = system: RERF-LC-KJ
# How it was run: as §1
# UMC-11 = system: UMC-11
# How it was run: as §1
smiles,measurement,setting,value
O=C(O)CCCCC(CCSCc1ccccc1)SCc1ccccc1 (stereo not drawn) [CPI-613] + CCNC(=O)c1noc(-c2cc(C(C)C)c(O)cc2O)c1-c1ccc(CN2CCOCC2)cc1 [Luminespib] (partner 0.01 µM),relative viability,201T; first compound 5 µM,1.05
same,relative viability,201T; first compound 15.81 µM,0.973
same,relative viability,201T; first compound 50 µM,1.01
same,relative viability,201T; first compound 158.11 µM,0.258
same,relative viability,201T; first compound 500 µM,0.0468
same,relative viability,BEN; first compound 5 µM,0.619
same,relative viability,BEN; first compound 15.81 µM,0.362
same,relative viability,BEN; first compound 50 µM,0.484
same,relative viability,BEN; first compound 158.11 µM,0.292
same,relative viability,BEN; first compound 500 µM,0.149
same,relative viability,CAL-12T; first compound 5 µM,0.349
same,relative viability,CAL-12T; first compound 15.81 µM,0.325
same,relative viability,CAL-12T; first compound 50 µM,0.377
same,relative viability,CAL-12T; first compound 158.11 µM,0.0292
same,relative viability,CAL-12T; first compound 500 µM,0.0074
same,relative viability,COR-L 105; first compound 5 µM,0.749
same,relative viability,COR-L 105; first compound 15.81 µM,0.727
same,relative viability,COR-L 105; first compound 50 µM,0.692
same,relative viability,COR-L 105; first compound 158.11 µM,0.421
same,relative viability,COR-L 105; first compound 500 µM,0.127
same,relative viability,H3255; first compound 5 µM,0.822
same,relative viability,H3255; first compound 15.81 µM,0.802
same,relative viability,H3255; first compound 50 µM,0.879
same,relative viability,H3255; first compound 500 µM,0.878
same,relative viability,HARA; first compound 15.81 µM,0.635
same,relative viability,HARA; first compound 50 µM,0.757
same,relative viability,HARA; first compound 158.11 µM,0.297
same,relative viability,HARA; first compound 500 µM,0.0024
same,relative viability,HCC-15; first compound 5 µM,0.297
same,relative viability,HCC-15; first compound 15.81 µM,0.424
same,relative viability,HCC-15; first compound 50 µM,0.304
same,relative viability,HCC-15; first compound 158.11 µM,0.0775
same,relative viability,HCC-15; first compound 500 µM,0.0498
same,relative viability,HCC-827; first compound 5 µM,0.416
same,relative viability,HCC-827; first compound 15.81 µM,0.615
same,relative viability,HCC-827; first compound 50 µM,0.774
same,relative viability,HCC-827; first compound 158.11 µM,0.633
same,relative viability,HCC-827; first compound 500 µM,0.329
same,relative viability,LC-2-ad; first compound 5 µM,1.02
same,relative viability,LC-2-ad; first compound 15.81 µM,0.958
same,relative viability,LC-2-ad; first compound 50 µM,0.847
same,relative viability,LC-2-ad; first compound 158.11 µM,0.235
same,relative viability,LC-2-ad; first compound 500 µM,0.0688
same,relative viability,LCLC-103H; first compound 5 µM,0.924
same,relative viability,LCLC-103H; first compound 15.81 µM,0.825
same,relative viability,LCLC-103H; first compound 50 µM,0.846
same,relative viability,LCLC-103H; first compound 158.11 µM,0.811
same,relative viability,LCLC-103H; first compound 500 µM,0.269
same,relative viability,LK-2; first compound 5 µM,0.19
same,relative viability,LK-2; first compound 15.81 µM,0.198
same,relative viability,LK-2; first compound 50 µM,0.189
same,relative viability,LK-2; first compound 158.11 µM,0.153
same,relative viability,LK-2; first compound 500 µM,0.172
same,relative viability,LU99A; first compound 5 µM,0.296
same,relative viability,LU99A; first compound 15.81 µM,0.222
same,relative viability,LU99A; first compound 50 µM,0.243
same,relative viability,LU99A; first compound 158.11 µM,0.159
same,relative viability,LU99A; first compound 500 µM,0.115
same,relative viability,LXF-289; first compound 5 µM,0.611
same,relative viability,LXF-289; first compound 15.81 µM,0.535
same,relative viability,LXF-289; first compound 50 µM,0.657
same,relative viability,LXF-289; first compound 158.11 µM,0.206
same,relative viability,LXF-289; first compound 500 µM,0.0484
same,relative viability,NCI-H1437; first compound 5 µM,1.09
same,relative viability,NCI-H1437; first compound 15.81 µM,1.04
same,relative viability,NCI-H1437; first compound 50 µM,1.07
same,relative viability,NCI-H1437; first compound 158.11 µM,0.53
same,relative viability,NCI-H1437; first compound 500 µM,0.0571
same,relative viability,NCI-H1651; first compound 5 µM,0.867
same,relative viability,NCI-H1651; first compound 15.81 µM,0.932
same,relative viability,NCI-H1651; first compound 50 µM,0.841
same,relative viability,NCI-H1651; first compound 158.11 µM,0.185
same,relative viability,NCI-H1651; first compound 500 µM,0.118
same,relative viability,NCI-H1792; first compound 5 µM,0.512
same,relative viability,NCI-H1792; first compound 15.81 µM,0.396
same,relative viability,NCI-H1792; first compound 50 µM,0.375
same,relative viability,NCI-H1792; first compound 158.11 µM,0.353
same,relative viability,NCI-H1792; first compound 500 µM,0.39
same,relative viability,NCI-H2085; first compound 5 µM,0.43
same,relative viability,NCI-H2085; first compound 15.81 µM,0.371
same,relative viability,NCI-H2085; first compound 50 µM,0.406
same,relative viability,NCI-H2085; first compound 158.11 µM,0.177
same,relative viability,NCI-H2085; first compound 500 µM,0.118
same,relative viability,NCI-H2228; first compound 5 µM,0.145
same,relative viability,NCI-H2228; first compound 15.81 µM,0.205
same,relative viability,NCI-H2228; first compound 50 µM,0.137
same,relative viability,NCI-H2228; first compound 158.11 µM,0.141
same,relative viability,NCI-H2228; first compound 500 µM,0.0612
same,relative viability,NCI-H23; first compound 5 µM,0.224
same,relative viability,NCI-H23; first compound 15.81 µM,0.222
same,relative viability,NCI-H23; first compound 50 µM,0.234
same,relative viability,NCI-H23; first compound 158.11 µM,0.129
same,relative viability,NCI-H23; first compound 500 µM,0.0632
same,relative viability,NCI-H2405; first compound 5 µM,0.657
same,relative viability,NCI-H2405; first compound 15.81 µM,0.711
same,relative viability,NCI-H2405; first compound 50 µM,0.622
same,relative viability,NCI-H2405; first compound 158.11 µM,0.736
same,relative viability,NCI-H2405; first compound 500 µM,0.727
same,relative viability,NCI-H322M; first compound 5 µM,0.777
same,relative viability,NCI-H322M; first compound 15.81 µM,0.781
same,relative viability,NCI-H322M; first compound 50 µM,0.826
same,relative viability,NCI-H322M; first compound 158.11 µM,0.53
same,relative viability,NCI-H322M; first compound 500 µM,0.0612
same,relative viability,RERF-LC-KJ; first compound 5 µM,1.28
same,relative viability,RERF-LC-KJ; first compound 15.81 µM,1.22
same,relative viability,RERF-LC-KJ; first compound 50 µM,1.23
same,relative viability,RERF-LC-KJ; first compound 158.11 µM,0.235
same,relative viability,RERF-LC-KJ; first compound 500 µM,0.198
same,relative viability,UMC-11; first compound 5 µM,0.977
same,relative viability,UMC-11; first compound 15.81 µM,1.02
same,relative viability,UMC-11; first compound 50 µM,0.955
same,relative viability,UMC-11; first compound 158.11 µM,0.148
same,relative viability,UMC-11; first compound 500 µM,0.112
